In ChEMBL document CHEMBL3044928, “Synthesis of 2,4-dihalogenofluorobenzenes and their antimicrobial and antifungal activity studies” (2007):
Values after ≈ are worked out from the molar mass of the structure shown. Active and inactive are the calls of the source. The rule behind the calls is not given here.

Assays:
Assay type in all cases: functional
Micrococcus flavus [1] = assay: Antibacterial activity against Micrococcus flavus clinical isolate at 5 mg/ml after 24 hr by disk diffusion method; settings: read-out: DIZ
Bacillus cereus [2] = assay: Antibacterial activity against Bacillus cereus ATCC 6633 by NCCLS broth microdilution method
Candida albicans [3] = assay: Antifungal activity against Candida albicans clinical isolate at 5 mg/ml after 48 hr by disk diffusion method; settings: read-out: DIZ
Morganella morganii [4] = assay: Antibacterial activity against Morganella morganii clinical isolate at 5 mg/ml after 24 hr by disk diffusion method; settings: for zone of inhibition at 5000 µg/mL: read-out: DIZ
Staphylococcus aureus [5] = assay: Antibacterial activity against Staphylococcus aureus ATCC 25923 at 5 mg/ml after 24 hr by disk diffusion method; settings: for zone of inhibition at 5000 µg/mL: ATCC 25923, 24 h, read-out: DIZ
Staphylococcus aureus [6] = assay: Antibacterial activity against Staphylococcus aureus ATCC 25923 by NCCLS broth microdilution method
Candida albicans [7] = assay: Antifungal activity against Candida albicans clinical isolate by NCCLS broth microdilution method
Escherichia coli [8] = assay: Antibacterial activity against Escherichia coli ATCC 27853 at 5 mg/ml after 24 hr by disk diffusion method; settings: for zone of inhibition at 5000 µg/mL: read-out: DIZ
Bacillus cereus [9] = assay: Antibacterial activity against Bacillus cereus ATCC 6633 at 5 mg/ml after 24 hr by disk diffusion method; settings: ATCC 6633, 24 h, read-out: DIZ
Escherichia coli [10] = assay: Antibacterial activity against Escherichia coli ATCC 27853 by NCCLS broth microdilution method
Morganella morganii [11] = assay: Antibacterial activity against Morganella morganii clinical isolate by NCCLS broth microdilution method
Micrococcus flavus [12] = assay: Antibacterial activity against Micrococcus flavus clinical isolate by NCCLS broth microdilution method
Micrococcus flavus [13] = assay: Antibacterial activity against Micrococcus flavus clinical isolate at 30 ug/disk after 24 hr by disk diffusion method; settings: read-out: DIZ
Escherichia coli [14] = assay: Antibacterial activity against Escherichia coli ATCC 27853 at 10 U/disk after 24 hr by disk diffusion method
Bacillus cereus [15] = assay: Antibacterial activity against Bacillus cereus ATCC 6633 at 1 ug/disk after 24 hr by disk diffusion method; settings: ATCC 6633, 24 h, read-out: DIZ
Staphylococcus aureus [16] = assay: Antibacterial activity against Staphylococcus aureus ATCC 25923 at 10 ug/disc after 24 hr by disk diffusion method; settings: ATCC 25923, 24 h, read-out: DIZ
Morganella morganii [17] = assay: Antibacterial activity against Morganella morganii clinical isolate at 30 ug/disk after 24 hr by disk diffusion method; settings: read-out: DIZ
Candida albicans [18] = assay: Antifungal activity against Candida albicans clinical isolate at 50 ug/disk after 48 hr by disk diffusion method; settings: read-out: DIZ
Candida albicans [19] = assay: Ratio of compound to ketoconazole activity against Candida albicans
Micrococcus flavus [20] = assay: Ratio of compound to tetracycline activity against Micrococcus flavus clinical isolate
Bacillus cereus [21] = assay: Ratio of compound to oxacillin activity against Bacillus cereus ATCC 6633

Row | MIC (Bacillus cereus [2]) | MIC (Staphylococcus aureus [6]) | MIC (Candida albicans [7]) | MIC (Escherichia coli [10]) | MIC (Morganella morganii [11]) | MIC (Micrococcus flavus [12]) | Compound | zone of inhibition at 5000 µg/mL (Micrococcus flavus [1]) | zone of inhibition at 5000 µg/mL (Candida albicans [3]) | zone of inhibition at 5000 µg/mL (Staphylococcus aureus [5]) | zone of inhibition at 5000 µg/mL (Escherichia coli [8]) | zone of inhibition at 5000 µg/mL (Bacillus cereus [9]) | other results
1 | 2000 µg/mL (≈ 12.1 mM) | 2500 µg/mL (≈ 15.2 mM) | 2000 µg/mL (≈ 12.1 mM) | 3000 µg/mL (≈ 18.2 mM) | 2500 µg/mL (≈ 15.2 mM) | 2500 µg/mL (≈ 15.2 mM) | Fc1cc(Cl)ccc1Cl [2,5-DICHLOROFLUOROBENZENE] | 14 mm | 17 mm | 15 mm | 11 mm | 16 mm | zone of inhibition at 5000 µg/mL (Morganella morganii [4]): 12 mm
2 | 2000 µg/mL (≈ 9.55 mM) | 2500 µg/mL (≈ 11.9 mM) | 2500 µg/mL (≈ 11.9 mM) | 3000 µg/mL (≈ 14.3 mM) | 2500 µg/mL (≈ 11.9 mM) | 2500 µg/mL (≈ 11.9 mM) | Fc1cc(Cl)ccc1Br | 13 mm | 11 mm | 14 mm | 13 mm | 17 mm | diameter of the inhibition zone (DIZ) (Morganella morganii [4]): inactive
3 | – | – | – | – | – | – | CN(C)[C@@H]1C(O)=C(C(N)=O)C(=O)[C@@]2(O)C(O)=C3C(=O)c4c(O)cccc4[C@@](C)(O)[C@H]3C[C@@H]12 [TETRACYCLINE] | – | – | – | – | – | zone of inhibition at 30 µg/disc (Micrococcus flavus [13]): 20 mm
4 | – | – | – | – | – | – | CC1(C)S[C@@H]2[C@H](NC(=O)Cc3ccccc3)C(=O)N2[C@H]1C(=O)O [PENICILLIN G] | – | – | – | – | – | diameter of the inhibition zone (DIZ) (Escherichia coli [14]): 19 mm
5 | 2000 µg/mL (≈ 7.8 mM) | 2500 µg/mL (≈ 9.75 mM) | 2500 µg/mL (≈ 9.75 mM) | 2500 µg/mL (≈ 9.75 mM) | 2500 µg/mL (≈ 9.75 mM) | 2500 µg/mL (≈ 9.75 mM) | Fc1cc(Cl)ccc1I | 11 mm | 14 mm | 12 mm | 11 mm | 13 mm | zone of inhibition at 5000 µg/mL (Morganella morganii [4]): 13 mm
6 | – | – | – | – | – | – | Cc1onc(-c2ccccc2)c1C(=O)N[C@@H]1C(=O)N2[C@@H]1SC(C)(C)[C@@H]2C(=O)O [OXACILLIN] | – | – | – | – | – | zone of inhibition at 1 µg/disc (Bacillus cereus [15]): 9 mm
7 | – | – | – | – | – | – | CC1(C)S[C@@H]2[C@H](NC(=O)[C@H](N)c3ccccc3)C(=O)N2[C@H]1C(=O)O [AMPICILLIN] | – | – | – | – | – | zone of inhibition at 10 µg/disc (Staphylococcus aureus [16]): 9 mm
8 | 2000 µg/mL (≈ 7.8 mM) | 2000 µg/mL (≈ 7.8 mM) | 2500 µg/mL (≈ 9.75 mM) | 3000 µg/mL (≈ 11.7 mM) | 1500 µg/mL (≈ 5.85 mM) | 1500 µg/mL (≈ 5.85 mM) | Fc1ccc(Cl)cc1I | 20 mm | 14 mm | 13 mm | 10 mm | 16 mm | zone of inhibition at 5000 µg/mL (Morganella morganii [4]): 10 mm
9 | – | – | – | – | – | – | O=C(N[C@H](CO)[C@H](O)c1ccc([N+](=O)[O-])cc1)C(Cl)Cl [CHLORAMPHENICOL] | – | – | – | – | – | zone of inhibition at 30 µg/disc (Morganella morganii [17]): 15 mm
10 | – | – | – | – | – | – | CC(=O)N1CCN(c2ccc(OCC3COC(Cn4ccnc4)(c4ccc(Cl)cc4Cl)O3)cc2)CC1 (stereo unspecified) [KETOCONAZOLE] | – | – | – | – | – | zone of inhibition at 50 µg/disc (Candida albicans [18]): 16 mm
11 | 2500 µg/mL (≈ 11.9 mM) | 2500 µg/mL (≈ 11.9 mM) | 2500 µg/mL (≈ 11.9 mM) | 2500 µg/mL (≈ 11.9 mM) | 2500 µg/mL (≈ 11.9 mM) | 2500 µg/mL (≈ 11.9 mM) | Fc1ccc(Cl)cc1Br | 32 mm | 30 mm | – | – | 15 mm | diameter of the inhibition zone (DIZ) (Morganella morganii [4]): inactive; diameter of the inhibition zone (DIZ) (Staphylococcus aureus [5]): inactive; diameter of the inhibition zone (DIZ) (Escherichia coli [8]): inactive; Ratio (Candida albicans [19]): 2; Ratio (Micrococcus flavus [20]): 2; Ratio (Bacillus cereus [21]): 2

Row | Compound | MIC (Bacillus cereus [2]) | MIC (Staphylococcus aureus [6]) | MIC (Candida albicans [7]) | MIC (Escherichia coli [10]) | MIC (Morganella morganii [11]) | MIC (Micrococcus flavus [12]) | zone of inhibition at 5000 µg/mL (Micrococcus flavus [1]) | zone of inhibition at 5000 µg/mL (Candida albicans [3]) | zone of inhibition at 5000 µg/mL (Staphylococcus aureus [5]) | zone of inhibition at 5000 µg/mL (Escherichia coli [8]) | zone of inhibition at 5000 µg/mL (Bacillus cereus [9]) | other results
12 | Fc1ccc(Cl)cc1Cl [2,4-DICHLOROFLUOROBENZENE] | 1500 µg/mL (≈ 9.09 mM) | 1200 µg/mL (≈ 7.27 mM) | 1 µg/mL (≈ 0.00606 mM) | 1200 µg/mL (≈ 7.27 mM) | 1500 µg/mL (≈ 9.09 mM) | 1500 µg/mL (≈ 9.09 mM) | 11 mm | 12 mm | 15 mm | 12 mm | 19 mm | diameter of the inhibition zone (DIZ) (Morganella morganii [4]): inactive
